How the values were obtained:
Experiment in all cases: Cell panel screen (CellTiter-Glo)
Assay type in all cases: cell-based, human
HCC1937 = HCC1937 (Breast), 20 micromolar, 72 hrs
Procedure, shortened: (§1)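 Single-concentration screen: 20 μM compound, 72 h, versus DMSO-only untreated cells. Viability read by CellTiter-Glo luminescence; % inhibition = (untreated − treated)/(untreated − no-cell background) × 100. Cells grown in recommended media plus 10% FBS at 37° C.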

HT-1197 = HT-1197 (Urinary bladder), 20 micromolar, 72 hrs
Procedure, shortened: as §1

T47D = T47D (Breast), 20 micromolar, 72 hrs
Procedure, shortened: as §1

RL95 = RL95 (Uterus), 20 micromolar, 72 hrs
Procedure, shortened: as §1

Bel-7402 = Bel-7402 (Liver), 20 micromolar, 72 hrs
Procedure, shortened: as §1

HCC1599 = HCC1599 (Breast), 20 micromolar, 72 hrs
Procedure, shortened: as §1

C3A = C3A (Liver), 20 micromolar, 72 hrs
Procedure, shortened: as §1

Colo 205 = conditions: Colo 205, 20 micromolar, 72 hrs
Procedure, shortened: as §1

HGC-27 = HGC-27 (Stomach), 20 micromolar, 72 hrs
Procedure, shortened: as §1

NCI-H1694 = NCI-H1694 (Lung), 20 micromolar, 72 hrs
Procedure, shortened: as §1

NCI-H1623 = NCI-H1623 (Lung), 20 micromolar, 72 hrs
Procedure, shortened: as §1

NCI-H1770 = NCI-H1770 (Lung), 20 micromolar, 72 hrs
Procedure, shortened: as §1

CW-2 = CW-2 (Colon), 20 micromolar, 72 hrs
Procedure, shortened: as §1

BT-549 = BT-549 (Breast), 20 micromolar, 72 hrs
Procedure, shortened: as §1

HCC1395 = HCC1395 (Breast), 20 micromolar, 72 hrs
Procedure, shortened: as §1

C8166 = C8166 (Leukemia), 20 micromolar, 72 hrs
Procedure, shortened: as §1

NCI-H2405 = NCI-H2405 (Lung), 20 micromolar, 72 hrs
Procedure, shortened: as §1

J82 = J82 (Urinary bladder), 20 micromolar, 72 hrs
Procedure, shortened: as §1

M059J = M059J (Brain), 20 micromolar, 72 hrs
Procedure, shortened: as §1

A498 = A498 (listed under Lung), 20 micromolar, 72 hrs
Procedure, shortened: as §1

Panc 03.27 = Panc 03.27 (Pancreas), 20 micromolar, 72 hrs
Procedure, shortened: as §1

ZR-75-30 = ZR-75-30 (Breast), 20 micromolar, 72 hrs
Procedure, shortened: as §1

HPAF-II = HPAF-II (Pancreas), 20 micromolar, 72 hrs
Procedure, shortened: as §1

MSTO-211-H = MSTO-211-H (Lung), 20 micromolar, 72 hrs
Procedure, shortened: as §1

T98G = T98G (Brain), 20 micromolar, 72 hrs
Procedure, shortened: as §1

HCC1569 = HCC1569 (Breast), 20 micromolar, 72 hrs
Procedure, shortened: as §1

NCI-H28 = NCI-H28 (Lung), 20 micromolar, 72 hrs
Procedure, shortened: as §1

BT-474 = BT-474 (Breast), 20 micromolar, 72 hrs
Procedure, shortened: as §1

ChaGo-K-1 = ChaGo-K-1 (Lung), 20 micromolar, 72 hrs
Procedure, shortened: as §1

NCI-H2347 = NCI-H2347 (Lung), 20 micromolar, 72 hrs
Procedure, shortened: as §1

NCI-H524 = NCI-H524 (Lung), 20 micromolar, 72 hrs
Procedure, shortened: as §1

A704 = A704 (Kidney), 20 micromolar, 72 hrs
Procedure, shortened: as §1

HEC-1-A = HEC-1-A (Uterus), 20 micromolar, 72 hrs
Procedure, shortened: as §1

SW13 = SW13 (Adrenal gland), 20 micromolar, 72 hrs
Procedure, shortened: as §1

CCF-STTG1 = CCF-STTG1 (Brain), 20 micromolar, 72 hrs
Procedure, shortened: as §1

TCCSUP = TCCSUP (Urinary bladder), 20 micromolar, 72 hrs
Procedure, shortened: as §1

**Q.** Which results are given for `COc1cc(O)c2c(=O)c3cc(CC=C(C)C)c(O)c(O)c3oc2c1CC=C(C)C` [Go-15]?
**A.** Percent Inhibition (HCC1937): 85%; Percent Inhibition (HT-1197): 51%; Percent Inhibition (T47D): 70%; Percent Inhibition (RL95): 94%; Percent Inhibition (Bel-7402): 64%; Percent Inhibition (HCC1599): 62%; Percent Inhibition (C3A): 60%; Percent Inhibition (Colo 205): 89%; Percent Inhibition (HGC-27): 98%; Percent Inhibition (NCI-H1694): 97%; Percent Inhibition (NCI-H1623): 78%; Percent Inhibition (NCI-H1770): 75%; Percent Inhibition (CW-2): 96%; Percent Inhibition (BT-549): 87%; Percent Inhibition (HCC1395): 25%; Percent Inhibition (C8166): 93%; Percent Inhibition (NCI-H2405): 50%; Percent Inhibition (J82): 74%; Percent Inhibition (M059J): 88%; Percent Inhibition (A498): 78%; Percent Inhibition (Panc 03.27): 86%; Percent Inhibition (ZR-75-30): 83%; Percent Inhibition (HPAF-II): 72%; Percent Inhibition (MSTO-211-H): 69%; Percent Inhibition (T98G): 98%; Percent Inhibition (HCC1569): 86%; Percent Inhibition (NCI-H28): 74%; Percent Inhibition (BT-474): 82%; Percent Inhibition (ChaGo-K-1): 11%; Percent Inhibition (NCI-H2347): 51%; Percent Inhibition (NCI-H524): 98%; Percent Inhibition (A704): 92%; Percent Inhibition (HEC-1-A): 67%; Percent Inhibition (SW13): 95%; Percent Inhibition (CCF-STTG1): 84%; Percent Inhibition (TCCSUP): 88%

**Q.** `CC1(C)C=Cc2c(cc(O)c3c(=O)c4cc5c(c(O)c4oc23)OC(C)(C)C=C5)O1` [Go-16] was tested. Which “Percent Inhibition” value (HCC1937) did it give?
**A.** Its value is 25%.

**Q.** What about the “Percent Inhibition” value (HT-1197) of the same compound?
**A.** Its value is 35%.

**Q.** What about the “Percent Inhibition” value (T47D) of the same compound?
**A.** The value was 20%.

**Q.** And the “Percent Inhibition” value (RL95)?
**A.** Its value is -8%.

**Q.** And the “Percent Inhibition” value (Bel-7402)?
**A.** Its value is 15%.

**Q.** What about the “Percent Inhibition” value (HCC1599) of the same compound?
**A.** The value was 41%.

**Q.** What about the “Percent Inhibition” value (C3A) of the same compound?
**A.** The value was 22%.

**Q.** What about the “Percent Inhibition” value (Colo 205) of the same compound?
**A.** Its value is 4%.

**Q.** What about the “Percent Inhibition” value (HGC-27) of the same compound?
**A.** Its value is 28%.

**Q.** And the “Percent Inhibition” value (NCI-H1694)?
**A.** Its value is 5%.

**Q.** And the “Percent Inhibition” value (NCI-H1623)?
**A.** Its value is 33%.

**Q.** And the “Percent Inhibition” value (NCI-H1770)?
**A.** Its value is 25%.

**Q.** And the “Percent Inhibition” value (CW-2)?
**A.** The value was 17%.

**Q.** And the “Percent Inhibition” value (BT-549)?
**A.** The value was -5%.

**Q.** And the “Percent Inhibition” value (HCC1395)?
**A.** Its value is 68%.

**Q.** What about the “Percent Inhibition” value (C8166) of the same compound?
**A.** Its value is 13%.

**Q.** What about the “Percent Inhibition” value (NCI-H2405) of the same compound?
**A.** The value was 27%.

**Q.** What about the “Percent Inhibition” value (J82) of the same compound?
**A.** The value was 23%.

**Q.** And the “Percent Inhibition” value (M059J)?
**A.** The value was 31%.

**Q.** What about the “Percent Inhibition” value (A498) of the same compound?
**A.** The value was 12%.

**Q.** And the “Percent Inhibition” value (Panc 03.27)?
**A.** The value was 20%.

**Q.** What about the “Percent Inhibition” value (ZR-75-30) of the same compound?
**A.** Its value is 47%.

**Q.** What about the “Percent Inhibition” value (HPAF-II) of the same compound?
**A.** The value was 15%.

**Q.** And the “Percent Inhibition” value (MSTO-211-H)?
**A.** The value was 34%.

**Q.** What about the “Percent Inhibition” value (T98G) of the same compound?
**A.** The value was 29%.

**Q.** What about the “Percent Inhibition” value (HCC1569) of the same compound?
**A.** Its value is 11%.

**Q.** And the “Percent Inhibition” value (NCI-H28)?
**A.** The value was 9%.

**Q.** What about the “Percent Inhibition” value (BT-474) of the same compound?
**A.** The value was -6%.

**Q.** What about the “Percent Inhibition” value (ChaGo-K-1) of the same compound?
**A.** Its value is 9%.

**Q.** And the “Percent Inhibition” value (NCI-H2347)?
**A.** The value was -8%.

**Q.** What about the “Percent Inhibition” value (NCI-H524) of the same compound?
**A.** The value was -35%.

**Q.** What about the “Percent Inhibition” value (A704) of the same compound?
**A.** The value was 17%.

**Q.** What about the “Percent Inhibition” value (HEC-1-A) of the same compound?
**A.** Its value is 11%.

**Q.** And the “Percent Inhibition” value (SW13)?
**A.** Its value is 6%.

**Q.** What about the “Percent Inhibition” value (CCF-STTG1) of the same compound?
**A.** The value was 22%.

**Q.** And the “Percent Inhibition” value (TCCSUP)?
**A.** The value was 44%.

From publication PMC4450297, “Screening Active Compounds from Garcinia Species Native to China Reveals Novel Compounds Targeting the STAT/JAK Signaling Pathway” (BioMed Research International, 2015)
